The nature of data set [1]: Modulation of TH-302 activity by the flavin reductase inhibitor DPI. It is filed as cell-based. Particulars: with DPI. An excerpt:
(§1) The role of homology-directed DNA repair (HDR) on TH-302 was investigated in wild type and HDR deficient chinese hamster ovary (CHO) cells. […] TH-302 activity can be modulated by pharmacological modulators of both reductases and DNA damage and repair pathways. TH-302 activity can be inhibited by the flavin reductase inhibitor DPI. TH-302 activity was not affected by the PARP inhibitor ABT-888.

The test system of data set [2] is multiple human cancer cell lines. Description: Hypoxia-enhanced cytotoxicity in vitro. It is filed as cell-based. An excerpt: In these examples, pharmacological tools were utilized to test the underlying mechanisms of DNA repair processes involved in the cellular response to TH-302. In vitro cytotoxicity assays were used as the primary read-out.
The next data set concerns AA8. Description: Cytotoxicity in AA8 cells (Table 7). It is filed as cell-based, chinese hamster. Particulars: Cricetulus griseus. An excerpt:
(§2) In contrast, the activity of the monoalkylating agent temozolomide was enhanced by ABT-888 in these cancer cell lines (see, Tables 1, 3, and 5).

The next data set has as its system H460 cell lines. Description: In vitro cytotoxicity (AlamarBlue) with or without ABT-888, H460. It counts as cell-based. To be noted: Homo sapiens. The procedure:
(§3) The effect of the PARP inhibitor, ABT-888, on TH-302 activity was investigated in three human cancer cell lines: human non small cell lung H460, human melanoma A375, and human colorectal carcinoma HCT116.
(§4) Cells were pretreated with ABT-888 for 1 h under normoxia, and then co-incubated with TH-302 for additional 2 h under either normoxia or hypoxia. After 3 days of incubation in the presence of ABT-888, cell viability was determined using AlamarBlue. For the temozolomide (TMZ) group, cells were co-treated with temozolomide and ABT-888 for 3 days after 1 h pretreatment with ABT-888.
(Resazurin is reduced to fluorescent resorufin, in cell work by metabolically active cells.)

Another data set relates to AA8 cells. In words: Cytotoxicity in wild type AA8 cells, 2 h treatment, alamar blue (Table 8). It is filed as cell-based, chinese hamster. Particulars: for IC50: Cricetulus griseus. The procedure:
as §1
(§5) The wild type AA8 cells and the HDR impaired irs1SF and UV41 cells were treated with TH-302 for 2 h, washed, and then incubated for 3 days. At the end of the incubation, viable cells were quantified using alamar blue.

For a further data set, the system named is EM9 cells. Description: Cytotoxicity in EM9 cells deficient in base excision repair gene XRCC1 (Table 7). Particulars: for Fold difference in sensitivity (anoxia) / Fold difference in sensitivity (normoxia): AA8 versus EM9. It is filed as cell-based.
Description: as §2

Another data set concerns HCT116 cell lines. In words: In vitro cytotoxicity (AlamarBlue) with or without ABT-888, HCT116. It is filed as cell-based. Particulars: Homo sapiens. The procedure:
as §3, §4

In the next data set the test system is irs1SF cells. Description: Cytotoxicity in HDR impaired irs1SF cells, 2 h treatment, alamar blue (Table 8). Particulars: for IC50: Cricetulus griseus. It is filed as cell-based, chinese hamster. The procedure:
as §1, §5

A further data set concerns A375 cell lines. In words: In vitro cytotoxicity (AlamarBlue) with or without ABT-888, A375. It is filed as cell-based. Particulars: Homo sapiens. The procedure:
as §3, §4

Another data set relates to UV41 cells. In words: Cytotoxicity in HDR impaired UV41 cells, 2 h treatment, alamar blue (Table 8). It counts as cell-based, chinese hamster. To be noted: for IC50: Cricetulus griseus. The procedure: as §1, §5
The mark [3] stands for this setting: CHO-AA8, read-out: IC50 (μM) Anoxia AA8.
Where [4] appears, read: CHO-AA8, read-out: IC50 (μM) Normoxia AA8.
The mark [5] stands for this setting: read-out: IC50 (μM) Normoxia EM9.

Where two headings read alike, the source gives them in different places.

In the case of `Cn1c(COP(=O)(NCCBr)NCCBr)cnc1[N+](=O)[O-]` [TH-302], in data set [1], the “TH-302 activity in the presence of the flavin reductase inhibitor DPI” value is recorded as “inhibited”. In addition, the hypoxia-enhanced cytotoxicity entry in data set [2] was “about 400 fold”. The IC50 in the data set with AA8 (setting [3]) is 10 µM; with AA8 (setting [4]) it was above 1000 µM; in the data set with H460 cell lines (NCI-H460, read-out: IC50 (μM) Hypoxia) it was 0.2 µM; in the data set on H460 cell lines (NCI-H460, read-out: IC50 (μM) Normoxia) it was 47 µM; in the data set with AA8 cells (CHO-AA8, N2, read-out: IC50 (μM) N2), 1.1 µM; in the data set on AA8 cells (CHO-AA8, air, read-out: IC50 (μM) Air) it was 340 µM. Besides, the IC50 with EM9 cells (read-out: IC50 (μM) Anoxia EM9) was determined as 14 µM; in the data set on EM9 cells (setting [5]), 760 µM; in the data set with HCT116 cell lines (HCT-116, read-out: IC50 (μM) Hypoxia), 0.1 µM; in the data set with HCT116 cell lines (HCT-116, read-out: IC50 (μM) Normoxia) it was 61 µM; in the data set on irs1SF cells (N2, read-out: IC50 (μM) N2), 0.5 µM; with irs1SF cells (air, read-out: IC50 (μM) Air), 95 µM. Moreover, the half-maximal inhibitory concentration (IC50) came out at 1.5 µM in the data set with A375 cell lines (A-375, read-out: IC50 (μM) Hypoxia); 230 µM in the data set on A375 cell lines (A-375, read-out: IC50 (μM) Normoxia); 0.02 µM in the data set on UV41 cells (N2, read-out: IC50 (μM) N2); 16 µM in the data set with UV41 cells (air, read-out: IC50 (μM) Air). Further, the results for the HCR in the data set on AA8 cells (ratio air/N2), in the data set on irs1SF cells (ratio air/N2) and in the data set with UV41 cells (ratio air/N2) were 310, 190 and 800, respectively. Further, the “Fold difference in sensitivity (anoxia)” value in the data set on EM9 cells came to 1 fold. In addition, in the data set on EM9 cells (normoxia), the “Fold difference in sensitivity (normoxia)” value was above 1.3 fold.

For `Cn1nnc2c(C(N)=O)ncn2c1=O` [Temozolomide, temozolomide, reference compound], the IC50 in the data set with AA8 (CHO-AA8, AA8, normoxia, read-out: IC50 (μM) Normoxia AA8) was above 1000 µM; in the data set with H460 cell lines (NCI-H460, H460, normoxia, 3 days co-treatment after 1 h ABT-888 pretreatment, read-out: IC50 (μM), Normoxia), 540 µM; in the data set on EM9 cells (EM9, normoxia, read-out: IC50 (μM) Normoxia EM9), 168 µM; in the data set on HCT116 cell lines (HCT-116, HCT116, normoxia, 3 days co-treatment after 1 h ABT-888 pretreatment, read-out: IC50 (μM), Normoxia), 890 µM; in the data set with A375 cell lines (A-375, A375, normoxia, 3 days co-treatment after 1 h ABT-888 pretreatment, read-out: IC50 (μM), Normoxia), 510 µM. The “Fold difference in sensitivity (normoxia)” value with EM9 cells (normoxia) is listed as above 5.9 fold.

Regarding `Nc1n[n+]([O-])c2ccccc2[n+]1[O-]` [Tirapazamine, tirapazamine], the IC50 in the data set with AA8 (setting [3]) was 50 µM; with AA8 (setting [4]), above 1000 µM; in the data set with EM9 cells (read-out: IC50 (μM) Anoxia EM9) it was 15 µM; in the data set with EM9 cells (setting [5]) it was above 1000 µM. For the same molecule, the “Fold difference in sensitivity (anoxia)” value with EM9 cells came out at 3 fold.

As usually defined, the IC50 is the concentration at which inhibition is half-maximal.

Source of the values: patent US20140171389A1, “METHODS FOR TREATING CANCER” (THRESHOLD PHARMACEUTICALS, INC., priority 2011, published 2014).
